According to patent US6010854A, “Autoantibodies to neurotransmitter receptors” (University of Utah Research Foundation, priority 1997, dated 2000):

Assays:
Format in all cases: cell-based
[1] = system: anti-GluR3 antibody-evoked currents, mouse cortical neurons in culture; assay: Block of anti-GluR3 antibody-evoked whole cell currents; details: for blockage of anti-GluR3 antibody-evoked currents: CNQX 40 μM, MK-801 10 μM, peptides 0.5 mg/ml incubated with serum or IgG for 15 minutes
[2] = system: glutamate receptors, fetal mouse cortical neurons in culture; assay: Whole cell currents evoked in voltage-clamped neurons in culture; details: 100 μM NMDA with 1 μM glycine, -75 mV, 1 mM MgCl2
Protocol: To examine functional consequences of antibody binding to glutamate receptors, electrophysiological methods were used to record whole cell currents from mouse cortical neurons in culture. Neuronal cultures from fetal (E14-16) mouse cortical and hippocampal structures were prepared on poly-L-lysine-coated 35 mm "FALCON" dishes according to G. Skeen et al., 44 Molec. Pharmacol. 443 (1993), hereby incorporated by reference. Cultures were fed every other day using a growth medium consisting of DMEM, 10% horse serum, 30 mM glucose, and 0.5 mM glutamine. Arabinosylcytosine (ARA-C) was added for 1 day during the first week in culture to suppress growth of non-neuronal cells. Electrophysiological experiments were performed on 2-5 week old cultures at room temperature. External solution consisted of 145 mM NaCl, 1.5 mM KCl, 1 mM CaCl2, 1 mM MgCl2, 10 mM Na-HEPES, 10 mM glucose, 30 mM sucrose at pH 7.4, 320 mOsm. Internal solution consisted of 153 mM CsCl, 10 mM Cs-HEPES, 4 mM MgCl2, 5 mM EGTA at pH 7.35, 300 mOsm. Solutions were designed for measurement of predominantly sodium inward currents and to block NMDA receptor currents when neurons are voltage clamped at -75 mV. […]
Currently, the composition of native GluR's and GABAR's is unknown and the potential diversity of native receptors is immense. […] Five cells are recorded for each paradigm and antibody. […]

[3] = system: currents evoked by serum from a Rasmussen's encephalitis patient, fetal mouse cortical neurons; assay: Block of whole cell currents evoked by serum from a Rasmussen's encephalitis patient
Protocol: To examine functional consequences of antibody binding to glutamate receptors, electrophysiological methods were used to record whole cell currents from mouse cortical neurons in culture. Neuronal cultures from fetal (E14-16) mouse cortical and hippocampal structures were prepared on poly-L-lysine-coated 35 mm "FALCON" dishes according to G. Skeen et al., 44 Molec. Pharmacol. 443 (1993), hereby incorporated by reference. Cultures were fed every other day using a growth medium consisting of DMEM, 10% horse serum, 30 mM glucose, and 0.5 mM glutamine. Arabinosylcytosine (ARA-C) was added for 1 day during the first week in culture to suppress growth of non-neuronal cells. Electrophysiological experiments were performed on 2-5 week old cultures at room temperature. External solution consisted of 145 mM NaCl, 1.5 mM KCl, 1 mM CaCl2, 1 mM MgCl2, 10 mM Na-HEPES, 10 mM glucose, 30 mM sucrose at pH 7.4, 320 mOsm. Internal solution consisted of 153 mM CsCl, 10 mM Cs-HEPES, 4 mM MgCl2, 5 mM EGTA at pH 7.35, 300 mOsm. Solutions were designed for measurement of predominantly sodium inward currents and to block NMDA receptor currents when neurons are voltage clamped at -75 mV. […] To block other currents, 0.2-1 μM tetrodotoxin (TTX), 10 μM picrotoxin, 10 nM strychnine were added to the external solution. External solution was perfused continuously at about 2 ml/min. […]

Row | Compound | Antibody-evoked currents reduced to % of control ([1]; 40 μM, rabbit serum 1:8, 6 cells) | blockage of anti-GluR3 antibody-evoked currents [1] | current evoked by NMDA [2] | blockage of currents evoked by serum from a Rasmussen's encephalitis patient [3]
1 | N#Cc1cc2c(cc1[N+](=O)[O-])=NC(=O)C(=O)N=2 [CNQX, 6-cyano-7-nitro-quinoxaline-2,3-dione, reference compound] | 4±20 % of control | rapid, reversible, and voltage independent |  | 
2 | C[C@]12N[C@H](Cc3ccccc31)c1ccccc12 [MK-801, reference compound] |  | had no effect |  | 
3 | CN[C@H](CC(=O)O)C(=O)O [NMDA, N-methyl-D-aspartate] |  |  | No current was evoked | 
4 | GluR3A: synthetic peptide, amino acids 245-274 of GluR3 (SEQ ID NO:1) (NNENPMVQQFIQRWVRLDEREFPEAKNAP) |  | did not block antibody-evoked currents |  | does not
